In article PMC9356726 (Molecular Biology and Evolution, 2022):

Test system: AlmA
Type: biochemical, Streptomyces sp. A012304
Details: succinyl-CoA regenerated, 20 mM HEPES-NaOH pH 7.5, 20 μM PLP, 3 mM MgCl2, 37°C, 0.01 μM enzyme

## N[C@@H](CO)C(=O)O [serine]
  Km: 6.8 ± 1.4 mM
